“Also recorded” adds a separate entry of the source.
Assays:
[1] = tested on: classical pathway of complement; assay: Classical pathway complement inhibition ELISA (C3b deposition) in normal human plasma; format: biochemical; settings: human plasma diluted 1:40; mean of at least three experiments
Description: For this purpose, microtiter wells (NUNC) were coated with 50 μl of 1% ovalbumin in PBS (pH 7.4) at ambient temperature for 2 h. The wells were blocked with 200 μl of 1% BSA in PBS for 1 h, then coated with 50 μl of 1:1000 α-ovalbumin polyclonal antibody in PBS for 1 h. Between each step, the plate was washed thrice with 200 μl of 0.05% Tween 20 in PBS (PBS-T); 30 μl of VBS (Veronal buffer 1×; 5 mM veronal, pH 7.4, containing 150 mM NaCl, 0.5 mM CaCl2 and 0.5 mM MgCl2) were placed in all but the first well of each row of the 96-well plate, and 5 μM peptide solutions in VBS were prepared. […] Human plasma diluted 1:40 in VBS was incubated for 15 min with peptide of 0.005 to 2.5 μM. After washing with PBS-T, 50 μl/well of 1:1000 goat a-human C3 HRP conjugated antibody in 1% BSA in PBS was added to the wells and incubated for 1 h at room temperature. Complement fixation indicating activation was detected by the addition of HRP substrate (0.05% ABTS and 0.1% of 30% aqueous H2O2 in 0.1 M sodium citrate, pH 4.2) and read at 405 nm. The absorbance data obtained at 405 nm were translated into % inhibition, considering 100% to be equal to complement activation in the absence of peptide. The percent inhibition was plotted against the logarithm of concentrations, and the resulting data set was fitted to the equation “log(inhibitor) vs. normalized response” using GraphPad Prism 5 (La Jolla, CA). IC50 values were obtained from the fitted parameters of the mean of at least three independent experiments. Cp40 was always used as the internal control.

[2] = target: T1, purified human C3b (Homo sapiens, UniProt P01024); assay: SPR C3b-binding activity of compound present in vitreous samples
T1 construct: purchased Complement Technology, Inc., Tyler, TX
Description: To confirm that the compound present in the NHP vitreous maintains C3b-binding activity, which is a prerequisite for eliciting its inhibitory action across all complement pathways, surface plasmon resonance (SPR) binding experiments were conducted. Briefly, for a positive binding control, serial dilutions of Cp40-KKK (16, 8, 4, and 2 nM) were added to rabbit vitreous samples and flowed onto a Biacore CM5 chip immobilized with purified human C3b (Complement Technology Inc, Tyler, TX) (see FIG. 19A). Next, vitreous samples were collected from a Cp40-KKK injected eye at day 14 post-injection and subjected to heat-inactivation at 95° C. for 5 min. Both heat-inactivated and non-heat-inactivated samples were flowed onto a CM5 chip immobilized with purified human C3b as indicated above (FIG. 19B).

[3] = NHP vitreous, day 14 post-injection

T1 sequence (P01024 23-667 limits assumed): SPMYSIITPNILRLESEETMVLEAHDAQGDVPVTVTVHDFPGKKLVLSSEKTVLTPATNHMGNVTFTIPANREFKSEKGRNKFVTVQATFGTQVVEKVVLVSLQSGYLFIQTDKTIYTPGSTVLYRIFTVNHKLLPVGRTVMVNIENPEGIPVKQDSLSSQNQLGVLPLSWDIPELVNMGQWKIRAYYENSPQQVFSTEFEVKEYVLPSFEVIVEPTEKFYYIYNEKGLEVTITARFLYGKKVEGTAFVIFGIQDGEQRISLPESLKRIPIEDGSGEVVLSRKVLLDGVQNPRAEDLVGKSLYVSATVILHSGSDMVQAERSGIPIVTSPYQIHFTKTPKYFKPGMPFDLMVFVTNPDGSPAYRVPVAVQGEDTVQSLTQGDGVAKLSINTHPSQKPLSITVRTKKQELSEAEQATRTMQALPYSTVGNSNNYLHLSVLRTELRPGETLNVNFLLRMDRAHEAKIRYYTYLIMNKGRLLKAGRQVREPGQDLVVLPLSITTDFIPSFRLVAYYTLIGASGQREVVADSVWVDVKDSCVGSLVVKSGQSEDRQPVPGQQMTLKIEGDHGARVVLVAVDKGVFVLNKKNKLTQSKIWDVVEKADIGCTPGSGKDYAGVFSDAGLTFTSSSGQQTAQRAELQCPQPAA
T1 sequence (P01024 749-1663 partner limits assumed): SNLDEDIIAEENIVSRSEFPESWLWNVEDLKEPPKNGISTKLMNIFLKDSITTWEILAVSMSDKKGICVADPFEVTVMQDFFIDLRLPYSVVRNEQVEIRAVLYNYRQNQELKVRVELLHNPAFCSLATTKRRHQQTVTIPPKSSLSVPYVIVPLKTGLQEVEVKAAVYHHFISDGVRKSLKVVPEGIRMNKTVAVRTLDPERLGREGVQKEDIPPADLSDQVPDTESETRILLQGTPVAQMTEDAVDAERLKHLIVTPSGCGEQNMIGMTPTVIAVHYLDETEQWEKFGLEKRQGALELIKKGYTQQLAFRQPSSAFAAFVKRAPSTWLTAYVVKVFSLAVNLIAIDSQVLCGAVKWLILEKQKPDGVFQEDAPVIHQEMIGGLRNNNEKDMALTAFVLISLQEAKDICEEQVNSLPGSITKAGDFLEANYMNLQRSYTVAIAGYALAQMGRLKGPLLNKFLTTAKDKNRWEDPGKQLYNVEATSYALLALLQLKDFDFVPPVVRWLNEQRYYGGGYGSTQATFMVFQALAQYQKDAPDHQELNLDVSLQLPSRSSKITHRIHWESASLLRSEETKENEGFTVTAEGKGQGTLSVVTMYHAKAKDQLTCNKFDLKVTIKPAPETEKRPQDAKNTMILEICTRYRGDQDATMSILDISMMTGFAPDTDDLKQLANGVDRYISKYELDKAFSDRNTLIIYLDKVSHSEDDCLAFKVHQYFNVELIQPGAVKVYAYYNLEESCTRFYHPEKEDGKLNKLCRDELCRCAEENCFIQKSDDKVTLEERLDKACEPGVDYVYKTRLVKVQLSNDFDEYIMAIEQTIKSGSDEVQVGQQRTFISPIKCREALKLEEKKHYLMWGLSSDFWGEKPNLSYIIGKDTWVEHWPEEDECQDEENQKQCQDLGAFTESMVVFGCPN

CC[C@H](C)[C@H](NC(=O)[C@H](N)Cc1ccc(O)cc1)C(=O)N[C@H]1CSSC[C@@H](C(=O)N(C)[C@H](C(=O)N[C@@H](CCCCN)C(=O)N[C@@H](CCCCN)C(=O)N[C@@H](CCCCN)C(N)=O)[C@@H](C)CC)NC(=O)[C@H](CCCNC(=N)N)NC(=O)[C@H](Cc2c[nH]cn2)NC(=O)[C@H](C)NC(=O)CN(C)C(=O)[C@H](Cc2c[nH]c3ccccc23)NC(=O)[C@H](CC(=O)O)NC(=O)[C@H](CCC(N)=O)NC(=O)[C@H](Cc2cn(C)c3ccccc23)NC(=O)[C@H](C(C)C)NC1=O [Cp40-KKK, DTyr-Ile-[Cys-Val-Trp(Me)-Gln-Asp-Trp-Sar-Ala-His-Arg-Cys]-mlle-Lys-Lys-Lys—NH2]
IC50 [1]: 81.7 ± 5.3 nM | C3b-binding signal, heat-inactivated vitreous sample [2, 3]: 10 relative units | C3b-binding signal, non-heat inactivated vitreous sample [2, 3]: 2 relative units | C3b binding in vitreous ([2]; spiked rabbit vitreous or injected NHP eye): binds to C3b in a dose-dependent manner; also recorded: maintains its C3b-binding activity

Reference: patent publication US11884747B2, “Compstatin analogs with increased solubility and improved pharmacokinetic properties” (The Trustees of the University of Pennsylvania, priority 2018, dated 2024)
